{"source": "patent US12220442B2", "about": "“Antiepileptic toxin Martentoxin and use thereof” (Shanghai Institute of Organic Chemistry, Chinese Academy of …, priority 2018, dated 2025)", "key": {"[1]": {"tested_on": "c-Fos expression in hippocampus", "assay": "c-Fos expression in hippocampus after seizures in rats (immunohistochemistry)", "type": "in vivo, rat", "design": "concentration or dose not given beside the values", "description": "After the completion of the PTZ-induced epileptic status behavior experiment, the animals were anesthetized by intraperitoneal injection of sodium pentobarbital (60 mg/kg). The blood vessels were washed by perfusion of 200 mL normal saline through the ascending aorta of the left ventricle, and then perfused with 400 mL fixative solution (0.1M PBS containing […], pH7.4, 4° C.) for 1-2 h. After the brain tissue was removed and placed in the same fixative overnight, it was immersed in 20% sucrose solution until it sank to the bottom of the container, and then immersed in 30% sucrose solution until it sank to the bottom of the container.\nThe hippocampal region was secreted from the brain of the rats using a refrigerator slicer (Leica 1900, Germany) with a thickness of 20 μm. The slices were pasted on gelatin-chromium potassium sulfate treated glass slide and frozen at −20° C. for later use. C-Fos immunohistochemistry was performed as follows: • (1) The slice was taken out of the −20° C. refrigerator, reheated for 30 min, framed with a histochemical pen around the slice, and dried; • (2) The slices were immersed for 30 min for braking membrane in 1% Triton-X solution added with 1% H2O2; • (3) Rinsed 3 times with 0.01M PBS (pH7.4) buffer, 5 min for each time; • (4) Sealed with 5% Goat serum at 37° C. for 1 h; • (5) The serum was sucked dry with filter paper, rabbit anti-c-Fos antibody (1: 400, Sc-52, Santa Cruz, USA) was added, the antibody was diluted with 0.01 M PBS, 100 μL for each section, and incubated in a wet box at 4° C. for 48 h; • (6) Rinsed with 0.01 M PBS (pH 7.4) for 10 min and repeated 3 times; • (7) Biotin-labeled goat anti-rabbit IgG diluted with 0.01 M PBS (1:200) was added at room temperature for 2 h; • (8) Rinsed with 0.01 M PBS for 10 min and repeated 3 times. ABC complex (A:B:PBS=1:1:100) was added at room temperature for 2 h; • (9) Rinsed with 0.01 M PBS (pH 7.4) for 10 min and repeated 3 times; • (10) Stained in the dark by DAB-nickel sulfate amine-glucose oxidase (DAB, Sangon Biotech) for 10 min; • (11) Dehydration, 70%, 80%, 95%, 100% (×2) were used for dehydration, 5 min each time, and then soaked with xylene twice, 5 min each time; • (12) The expression of c-Fos was observed under a microscope and sealed with neutral gum.\nThe number of c-Fos-like immunoreactive (FLI) neurons in different hippocampal regions (CA1, CA3) and dentate gyrus (DG) was counted. Two groups of animals (6 animals in each group) were randomly selected from 6 to 8 sections for FLI counting in different regions (counting respectively on the same side and the other side of injected toxin or normal saline), and the average value was calculated at last. The inhibition rate of c-Fos expression was calculated according to the following formula. Inhibitory ratio=(A−B)/A×100%\nWherein, A represents the number of FLI neurons in the normal saline control group; B represents the number of FLI neurons in the MarTX toxin injection group in the corresponding region of the hippocampus."}, "rat PTZ convulsion model": {"tested_on": "rat PTZ convulsion model", "assay": "Recurrent convulsive behavior of PTZ in rat", "type": "in vivo", "description": "Adult male SD rats were placed in a transparent glass box of 40×30×50 cm to observe the convulsive reaction after administration. Before injection, rats were placed in the box 1 h in advance, moved freely to adapt to the environment, and then injected PTZ (60 mg/kg) intraperitoneally to induce convulsion in rats. The experiment was divided into toxin injection group and normal saline blank control group.\n(1) MarTX toxin injection group: after one intraperitoneal injection of PTZ to induce seizures of epilepsy, the rats were injected with MarTX toxin (dissolved in 2 μL normal saline) in the hippocampus the next day, and then the PTZ was injected again. The toxin dose was 0.08 μg, n=7-8 (n is the number of experimental rats);\n(2) Normal saline blank control group: after one intraperitoneal injection of PTZ to induce seizures of epilepsy, the rats were injected with the same amount of normal saline into the hippocampus one day later, and then PTZ was injected again, n=6.\nIn the experiment, “double-blind” dosing and animal behavioral study were used to reduce human error. Incubation period, mortality, duration and number of seizures under different severity of seizures were measured as statistical indexes. The severity of seizures in rats was rated according to the following criteria [Neurophysiol. 1972, 32, 281-294; Brain Res. 1997, 758, 92-98]: • Grade 0: no response; • Grade 1: rhythmic twitch of mouth and face; • Grade 2: wave-like migratory spasm of body; • Grade 3: systemic myoclonus and hip upturned; • Level 4: the body turned to one side; • Grade 5: inverted position, systemic rigidity spasticity seizure.\nA complete convulsive seizure was defined as the period from the onset of the seizure to the return to normal after the seizure. The interval of more than 5 s between seizures was defined as another independent seizure. Incubation period was defined as the time from PTZ injection to the beginning of the first grade 2 seizure."}, "[2]": {"tested_on": "hippocampus field potential", "assay": "Field potential in hippocampus after seizure in rats", "type": "in vivo, rat", "conditions": "PTZ epilepsy model, versus normal saline group, n=3", "description": "Microarray electrodes were implanted according to the sixth edition of “Rat Brain Stereotactic Atlas” (FIG. 1) edited by George Paxinos and Charles Watson to determine the position of the electrodes: AP: 4.3 mm, MR: 2.2 mm, DV: 2.5 mm, and 3-4 screws were fixed in the blank region of the skull as reference electrodes. The recording electrode and electrode base were fixed with dental cement. Field potentials (FP) were recorded after waking rats. FP signal and sync video could be recorded via omniplex (plexon, USA). According to Nesquet's sampling theory, the back end of the electrode was connected to a preamplifier and coupled to the analog-to-digital converter box. […] was taken as the sampling frequency of local field potential recording, and a […] were set for continuous recording for more than 30 minutes. The local field potential recording results were exported to *. pl2 file format, and visual preview was carried out using offline sorter v4 software. The same channel was used to analyze the local field potential, and the data were derived by MATLAB (MathWorks, USA) program. The local field potential signals of different frequencies were decomposed by wavelet transform to obtain the […] of different frequencies (δ: ˜0-4 Hz, θ: ˜4-8 Hz, α: ˜8-13 Hz, β: ˜13-30 Hz, γ: ˜30-100 Hz). […]"}, "hippocampal neurons": {"tested_on": "hippocampal neurons", "assay": "Hippocampal neuron damage after seizures in rats (Nissel staining)", "type": "in vivo, rat", "conditions": "versus normal saline group", "description": "(1) The slice was taken out of the −20° C. refrigerator, reheated for 20 min, framed with a histochemical pen around the slice, and dried;\n(2) The slice was soaked in distilled water for 2 min;\n(3) Nissel staining solution (purchased from Beyotime) was dropped on the brain slice, and dyed in a 37° C. water bath for 10 min;\n(4) Washed twice with distilled water for 10 s each time;\n(5) Sections were dehydrated with 70%, 80%, 95%, 100% alcohol, 2 min each time, and then soaked with xylene twice, 5 min each time;\n(6) The nissel body staining was observed under a microscope and sealed with neutral gum.\nThe above two groups of animals (6 animals in each group) were randomly selected from 6 to 8 sections to count the neuron cells in different hippocampal regions (CA1, CA3 and DG). Finally, the average value was taken and the increasing rate of the number of neurons was calculated."}, "[3]": {"tested_on": "rat hippocampal neurons pretreated with PTZ", "assay": "Patch clamp current record and action potential analysis", "type": "cell-based", "description": "If the resting membrane potential of the cell was −70 mV and the input resistance was 350MΩ or more, the patch clamp current was considered acceptable. The record was held at −80 mV as the holding current and induced by increasing positive current injection (for 1000 ms). The action potential differences between PTZ treated cells (measured 24 h after application) and PTZ treated epileptic cells (measured 10 min after application) treated with rMarTX were compared. The peak width was measured at half the peak amplitude of the action potential. The difference between the peak threshold value and the minimum voltage after the peak value of the action potential was used as the measurement value of the post-superpotential. Peak interval was the time between action potential peaks.\nIn the current patch clamp recording, the standard external solution was composed of 1.2 mM MgCl2, 10 mM HEPES, 10 mM glucose, 1.5 mM CaCl2, 2.5 mM KCl and 145 mM NaCl. The pH of the solution was adjusted to 7.4 with NaOH. The internal solution was composed of 1 mM CaCl2, 4 mM MgCl2, 10 mM HEPES, 11 mM EGTA, and 140 mM KCl. The pH of the solution was adjusted to 7.2 with KOH."}, "[4]": {"conditions": "contralateral hippocampus, CA1 region"}, "[5]": {"conditions": "contralateral hippocampus, CA3 region"}, "[6]": {"conditions": "contralateral hippocampus, DG region"}, "[7]": {"conditions": "ipsilateral hippocampus, CA1 region"}, "[8]": {"conditions": "ipsilateral hippocampus, CA3 region"}, "[9]": {"conditions": "ipsilateral hippocampus, DG region"}, "[10]": {"conditions": "0.08 μg in hippocampus, PTZ 60 mg/kg i.p., within 2 h"}, "[11]": {"conditions": "MarTX relative to normal saline"}, "[12]": {"conditions": "300 pA current injection, versus normal saline group, n=4"}}, "data": [{"substance": "Martentoxin [MarTX]", "values": [{"measurement": "Inhibitory rate of c-Fos expression", "setting": "[1]; [4]", "value": 54.01, "unit": "%"}, {"measurement": "Inhibitory rate of c-Fos expression", "setting": "[1]; [5]", "value": 55.25, "unit": "%"}, {"measurement": "Inhibitory rate of c-Fos expression", "setting": "[1]; [6]", "value": 78.53, "unit": "%"}, {"measurement": "Inhibitory rate of c-Fos expression", "setting": "[1]; [7]", "value": 60.71, "unit": "%"}, {"measurement": "Inhibitory rate of c-Fos expression", "setting": "[1]; [8]", "value": 51.18, "unit": "%"}, {"measurement": "Inhibitory rate of c-Fos expression", "setting": "[1]; [9]", "value": 84.98, "unit": "%"}, {"measurement": "Duration of epilepsy", "setting": "rat PTZ convulsion model; [10]", "value": "160.00 ± 38.47", "unit": "s"}, {"measurement": "Number of deaths", "setting": "rat PTZ convulsion model; [10]", "value": "0/6"}, {"measurement": "The number of Grade 3 seizures", "setting": "rat PTZ convulsion model; [10]", "value": "0.50 ± 0.22"}, {"measurement": "The number of seizures from Grade 1 to Grade 2", "setting": "rat PTZ convulsion model; [10]", "value": "4.33 ± 1.36"}, {"measurement": "The number of seizures from Grade 4 to Grade 5", "setting": "rat PTZ convulsion model; [10]", "value": "0.50 ± 0.34"}, {"measurement": "Incubation", "setting": "rat PTZ convulsion model; 0.08 μg in hippocampus, PTZ 60 mg/kg i.p., within 2 h, time to first grade 2 seizure", "value": "427.17 ± 62.21", "unit": "s"}, {"measurement": "Decrease of the number of epileptic seizures (Grade 4 & 5)", "setting": "rat PTZ convulsion model; 0.08 μg, versus control group", "value": 77, "unit": "%"}, {"measurement": "Duration of epilepsy, relative amplitude", "setting": "rat PTZ convulsion model; [11]", "value": 40, "unit": "%"}, {"measurement": "Incubation, relative amplitude", "setting": "rat PTZ convulsion model; [11]", "value": 272, "unit": "%"}, {"measurement": "The number of Grade 3 seizures, relative amplitude", "setting": "rat PTZ convulsion model; [11]", "value": 14, "unit": "%"}, {"measurement": "The number of seizures from Grade 1 to Grade 2, relative amplitude", "setting": "rat PTZ convulsion model; [11]", "value": 42, "unit": "%"}, {"measurement": "The number of seizures from Grade 4 to Grade 5, relative amplitude", "setting": "rat PTZ convulsion model; [11]", "value": 23, "unit": "%"}, {"measurement": "Reduction of the number of Grade 3 seizures", "setting": "rat PTZ convulsion model; versus blank control group", "value": 86, "unit": "%"}, {"measurement": "Reduction of the duration of epilepsy", "setting": "rat PTZ convulsion model; versus control group", "value": "(2) MarTX toxin also significantly reduced the duration of epilepsy (duration of MarTX group: 160.00 ± 38.47 s, n = 6, *P < 0.05; control group was 400.00 ± 97.57 s, n = 6) by about 60%."}, {"measurement": "Power spectrum density of brain δ, θ, α, β and γ waves", "setting": "[2]", "value": "significantly lower"}, {"measurement": "Neuronal increase rate", "setting": "hippocampal neurons; [4]", "value": 79.50, "unit": "%"}, {"measurement": "Neuronal increase rate", "setting": "hippocampal neurons; [5]", "value": 94.82, "unit": "%"}, {"measurement": "Neuronal increase rate", "setting": "hippocampal neurons; [6]", "value": 79.62, "unit": "%"}, {"measurement": "Neuronal increase rate", "setting": "hippocampal neurons; [7]", "value": 95.73, "unit": "%"}, {"measurement": "Neuronal increase rate", "setting": "hippocampal neurons; [8]", "value": 102.02, "unit": "%"}, {"measurement": "Neuronal increase rate", "setting": "hippocampal neurons; [9]", "value": 93.43, "unit": "%"}, {"measurement": "Discharge rate (number of action potentials)", "setting": "[3]; 100, 200 and 300 pA current injection, versus normal saline group, n=4", "value": "significant decrease"}, {"measurement": "Action potential peak interval", "setting": "[3]; 300 pA current injection, versus PTZ pretreated cells (normal saline group), n=4", "value": "significantly longer"}, {"measurement": "Action potential width", "setting": "[3]; [12]", "value": "greater"}, {"measurement": "Amplitude of the post-hypertrophy potential", "setting": "[3]; [12]", "value": "significantly increased"}, {"measurement": "Action potential failure", "setting": "[3]; higher current injection (300 pA), versus normal saline group", "value": "more action potential failure"}]}]}
